Assay results from patent US11685729B2, “C5a receptor modulators” (IDORSIA PHARMACEUTICALS LTD., priority 2018, dated 2023).
Read-outs that look alike come from different tables or passages of the source.

Biological target: C5AR1 (Homo sapiens (Human), UniProt P21730)
Experiment: In vitro assay: PathHunter beta-arrestin antagonist assay in CHO-K1 C5AR1 beta-arrestin cell line, stimulated with C5a agonist
[1] = read-out: C5aR IC50, CHO-K1 C5AR1 beta-arrestin cell line, 1-10 nM C5a agonist, geometric mean values

Sequence of C5AR1 (P21730 whole entry): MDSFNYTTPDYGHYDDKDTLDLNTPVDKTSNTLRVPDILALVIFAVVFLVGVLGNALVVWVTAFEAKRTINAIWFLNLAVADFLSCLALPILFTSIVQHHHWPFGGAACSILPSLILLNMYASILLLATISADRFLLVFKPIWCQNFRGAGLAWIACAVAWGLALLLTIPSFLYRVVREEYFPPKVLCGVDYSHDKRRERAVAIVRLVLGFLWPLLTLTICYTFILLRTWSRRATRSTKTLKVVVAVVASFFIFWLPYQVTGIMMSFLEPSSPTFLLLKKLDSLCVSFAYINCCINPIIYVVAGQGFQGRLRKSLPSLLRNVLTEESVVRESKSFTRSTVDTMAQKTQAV
Protocol: 5 μl Antagonist at 6-fold end concentration or DMSO control is added to assay medium and subsequently 5 μl 1-10 nM C5a agonist at 6 fold end concentration. Cells are centrifuged for 1 min at 1000 rpm and incubated for 1.5 hour in at 37° C. Plates are equilibrated at room temperature for several minutes before adding 12 μI/well Detection Reagent (PathHunter Detection Kit, DiscoverX, Cat #93-0001). Plates are centrifuged for 1 min at 1000 rpm and incubated for 45 minutes at RT before being measured on a Fluostar Optima, BMG Labtech. IC50 values are calculated from a serial dilution range of antagonist using inhouse software and given in nmol/l.
The calculated IC50 values may fluctuate depending on the daily cellular assay performance. […] Average IC50 values from several measurements are given as geometric mean values.

IC50 [1] [nM]	IC50 [nM]	SMILES
205		Cc1cccc(F)c1N1CCC(N2C(=O)N(Cc3ccccc3C(F)(F)F)c3ccccc3C2C)CC1 (racemic) [Example 70, 3-[1-(2-Fluoro-6-methyl-phenyl)-piperidin-4-yl]-4-methyl-1-(2-trifluoromethyl-benzyl)-3,4-dihydro-1H-quinazolin-2-one]
	59	Cc1cccc(F)c1N1CCC(N2C(=O)N(Cc3ccccc3C(F)(F)F)c3ccccc3C2C)CC1 (single isomer, unassigned) [Example 71, (S)- or (R)-3-[1-(2-Fluoro-6-methyl-phenyl)-piperidin-4-yl]-4-methyl-1-(2-trifluoromethyl-benzyl)-3,4-dihydro-1H-quinazolin-2-one]
944		COc1ccccc1N1CCC(N2Cc3cccc(OC)c3N(Cc3ccccc3C(F)(F)F)C2=O)CC1 [Example 4, 8-Methoxy-3-[1-(2-methoxy-phenyl)-piperidin-4-yl]-1-(2-trifluoromethyl-benzyl)-3,4-dihydro-1H-quinazolin-2-one]
300		COc1cccc(F)c1N1CCC(N2Cc3cccc(OC)c3N(Cc3ccccc3C(F)(F)F)C2=O)CC1 [Example 5, 3-[1-(2-Fluoro-6-methoxy-phenyl)-piperidin-4-yl]-8-methoxy-1-(2-trifluoromethyl-benzyl)-3,4-dihydro-1H-quinazolin-2-one]
245		COc1ccccc1N1CCC(N2Cc3ccccc3N(Cc3ccccc3C(F)(F)F)C2=O)CC1 [Example 6, 3-[1-(2-Methoxy-phenyl)-piperidin-4-yl]-1-(2-trifluoromethyl-benzyl)-3,4-dihydro-1H-quinazolin-2-one]
58		COc1cccc(F)c1N1CCC(N2Cc3ccccc3N(Cc3ccccc3C(F)(F)F)C2=O)CC1 [Example 7, 3-[1-(2-Fluoro-6-methoxy-phenyl)-piperidin-4-yl]-1-(2-trifluoromethyl-benzyl)-3,4-dihydro-1H-quinazolin-2-one]
104		COc1cccc2c1N(Cc1ccccc1C(F)(F)F)C(=O)N([C@@H]1CCN(c3c(F)cccc3F)C1)C2 [Example 8, 3-[(R)-1-(2,6-Difluoro-phenyl)-pyrrolidin-3-yl]-8-methoxy-1-(2-trifluoromethyl-benzyl)-3,4-dihydro-1H-quinazolin-2-one]
25		COc1cccc2c1N(Cc1ccccc1C(F)(F)F)C(=O)N([C@@H]1CCN(c3c(C)cccc3C)C1)C2 [Example 9, 3-[(R)-1-(2,6-Dimethyl-phenyl)-pyrrolidin-3-yl]-8-methoxy-1-(2-trifluoromethyl-benzyl)-3,4-dihydro-1H-quinazolin-2-one]
1870		COc1ccccc1N1CC[C@@H](N2Cc3cccc(OC)c3N(Cc3ccccc3C(F)(F)F)C2=O)C1 [Example 10, 8-Methoxy-3-[(R)-1-(2-methoxy-phenyl)-pyrrolidin-3-yl]-1-(2-trifluoromethyl-benzyl)-3,4-dihydro-1H-quinazolin-2-one]
219		COc1cccc(F)c1N1CC[C@@H](N2Cc3cccc(OC)c3N(Cc3ccccc3C(F)(F)F)C2=O)C1 [Example 11, 3-[(R)-1-(2-Fluoro-6-methoxy-phenyl)-pyrrolidin-3-yl]-8-methoxy-1-(2-trifluoromethyl-benzyl)-3,4-dihydro-1H-quinazolin-2-one]
679		Cn1nc(C2CC2)c(Cl)c1N1CCC(N2Cc3ccccc3N(Cc3ccccc3C(F)(F)F)C2=O)CC1 [Example 12, 3-[1-(4-Chloro-5-cyclopropyl-2-methyl-2H-pyrazol-3-yl)-piperidin-4-yl]-1-(2-trifluoromethyl-benzyl)-3,4-dihydro-1H-quinazolin-2-one]
627		Cc1cccc(C)c1N1CC[C@H](N2Cc3ccccc3N(Cc3ccccc3C(F)(F)F)C2=O)C1 [Example 14, 3-[(S)-1-(2,6-Dimethyl-phenyl)-pyrrolidin-3-yl]-1-(2-trifluoromethyl-benzyl)-3,4-dihydro-1H-quinazolin-2-one]
847		O=C1N(Cc2ccccc2C(F)(F)F)c2ccccc2CN1[C@H]1CCN(c2c(F)cccc2F)C1 [Example 15, 3-[(S)-1-(2,6-Difluoro-phenyl)-pyrrolidin-3-yl]-1-(2-trifluoromethyl-benzyl)-3,4-dihydro-1H-quinazolin-2-one]
635		COc1ccccc1N1CC[C@H](N2Cc3ccccc3N(Cc3ccccc3C(F)(F)F)C2=O)C1 [Example 16, 3-[(S)-1-(2-Methoxy-phenyl)-pyrrolidin-3-yl]-1-(2-trifluoromethyl-benzyl)-3,4-dihydro-1H-quinazolin-2-one]
437		COc1cccc(F)c1N1CC[C@H](N2Cc3ccccc3N(Cc3ccccc3C(F)(F)F)C2=O)C1 [Example 17, 3-[(S)-1-(2-Fluoro-6-methoxy-phenyl)-pyrrolidin-3-yl]-1-(2-trifluoromethyl-benzyl)-3,4-dihydro-1H-quinazolin-2-one]
28		Cc1cccc(C)c1N1CC[C@@H](N2Cc3ccccc3N(Cc3ccccc3C(F)(F)F)C2=O)C1 [Example 18, 3-[(R)-1-(2,6-Dimethyl-phenyl)-pyrrolidin-3-yl]-1-(2-trifluoromethyl-benzyl)-3,4-dihydro-1H-quinazolin-2-one]

IC50 [1] [nM]	IC50 [nM]	SMILES
53		O=C1N(Cc2ccccc2C(F)(F)F)c2ccccc2CN1[C@@H]1CCN(c2c(F)cccc2F)C1 [Example 19, 3-[(R)-1-(2,6-Difluoro-phenyl)-pyrrolidin-3-yl]-1-(2-trifluoromethyl-benzyl)-3,4-dihydro-1H-quinazolin-2-one]
181		COc1ccccc1N1CC[C@@H](N2Cc3ccccc3N(Cc3ccccc3C(F)(F)F)C2=O)C1 [Example 20, 3-[(R)-1-(2-Methoxy-phenyl)-pyrrolidin-3-yl]-1-(2-trifluoromethyl-benzyl)-3,4-dihydro-1H-quinazolin-2-one]
37		COc1cccc(F)c1N1CC[C@@H](N2Cc3ccccc3N(Cc3ccccc3C(F)(F)F)C2=O)C1 [Example 21, 3-[(R)-1-(2-Fluoro-6-methoxy-phenyl)-pyrrolidin-3-yl]-1-(2-trifluoromethyl-benzyl)-3,4-dihydro-1H-quinazolin-2-one]
52		COc1cccc(C)c1N1CC[C@@H](N2Cc3cccc(OC)c3N(Cc3ccccc3C(F)(F)F)C2=O)C1 [Example 22, 8-Methoxy-3-[(R)-1-(2-methoxy-6-methyl-phenyl)-pyrrolidin-3-yl]-1-(2-trifluoromethyl-benzyl)-3,4-dihydro-1H-quinazolin-2-one]
32		COc1cccc(C)c1N1CCC(N2Cc3ccccc3N(Cc3ccccc3C(F)(F)F)C2=O)CC1 [Example 23, 3-[1-(2-Methoxy-6-methyl-phenyl)-piperidin-4-yl]-1-(2-trifluoromethyl-benzyl)-3,4-dihydro-1H-quinazolin-2-one]
383		COc1cccc(OC)c1N1CC[C@@H](N2Cc3cccc(OC)c3N(Cc3ccccc3C(F)(F)F)C2=O)C1 [Example 24, 3-[(R)-1-(2,6-Dimethoxy-phenyl)-pyrrolidin-3-yl]-8-methoxy-1-(2-trifluoromethyl-benzyl)-3,4-dihydro-1H-quinazolin-2-one]
497		COc1cccc(C)c1N1CCC(N2Cc3cccc(OC)c3N(Cc3ccccc3C(F)(F)F)C2=O)CC1 [Example 25, 8-Methoxy-3-[1-(2-methoxy-6-methyl-phenyl)-piperidin-4-yl]-1-(2-trifluoromethyl-benzyl)-3,4-dihydro-1H-quinazolin-2-one]
35		Cc1cccc(F)c1N1CC[C@@H](N2Cc3ccccc3N(Cc3ccccc3C(F)(F)F)C2=O)C1 [Example 26, 3-[(R)-1-(2-Fluoro-6-methyl-phenyl)-pyrrolidin-3-yl]-1-(2-trifluoromethyl-benzyl)-3,4-dihydro-1H-quinazolin-2-one]
37		COc1cccc(C)c1N1CC[C@@H](N2Cc3ccccc3N(Cc3ccccc3C(F)(F)F)C2=O)C1 [Example 27, 3-[(R)-1-(2-Methoxy-6-methyl-phenyl)-pyrrolidin-3-yl]-1-(2-trifluoromethyl-benzyl)-3,4-dihydro-1H-quinazolin-2-one]
287		Cc1ccnc(C)c1N1CCC(N2Cc3ccccc3N(Cc3ccccc3C(F)(F)F)C2=O)CC1 [Example 28, 3-(2′,4′-Dimethyl-3,4,5,6-tetrahydro-2H-[1,3′]bipyridinyl-4-yl)-1-(2-trifluoromethyl-benzyl)-3,4-dihydro-1H-quinazolin-2-one]
35		COc1nccc(C)c1N1CCC(N2Cc3ccccc3N(Cc3ccccc3C(F)(F)F)C2=O)CC1 [Example 29, 3-(2′-Methoxy-4′-methyl-3,4,5,6-tetrahydro-2H-[1,3′]bipyridinyl-4-yl)-1-(2-trifluoromethyl-benzyl)-3,4-dihydro-1H-quinazolin-2-one]
45		Cc1ccnc(F)c1N1CCC(N2Cc3ccccc3N(Cc3ccccc3C(F)(F)F)C2=O)CC1 [Example 30, 3-(2′-Fluoro-4′-methyl-3,4,5,6-tetrahydro-2H-[1,3′]bipyridinyl-4-yl)-1-(2-trifluoromethyl-benzyl)-3,4-dihydro-1H-quinazolin-2-one]
37		COc1nccc(C)c1N1CC[C@@H](N2Cc3ccccc3N(Cc3ccccc3C(F)(F)F)C2=O)C1 [Example 31, 3-[(R)-1-(2-Methoxy-4-methyl-pyridin-3-yl)-pyrrolidin-3-yl]-1-(2-trifluoromethyl-benzyl)-3,4-dihydro-1H-quinazolin-2-one]
280		Cc1ccnc(C)c1N1CC[C@@H](N2Cc3ccccc3N(Cc3ccccc3C(F)(F)F)C2=O)C1 [Example 32, 3-[(R)-1-(2,4-Dimethyl-pyridin-3-yl)-pyrrolidin-3-yl]-1-(2-trifluoromethyl-benzyl)-3,4-dihydro-1H-quinazolin-2-one]
43		Cc1ccnc(F)c1N1CC[C@@H](N2Cc3ccccc3N(Cc3ccccc3C(F)(F)F)C2=O)C1 [Example 33, 3-[(R)-1-(2-Fluoro-4-methyl-pyridin-3-yl)-pyrrolidin-3-yl]-1-(2-trifluoromethyl-benzyl)-3,4-dihydro-1H-quinazolin-2-one]
116		COc1ccccc1CN1C(=O)N([C@@H]2CCN(c3c(C)cccc3C)C2)Cc2ccccc21 [Example 34, 3-[(R)-1-(2,6-Dimethyl-phenyl)-pyrrolidin-3-yl]-1-(2-methoxy-benzyl)-3,4-dihydro-1H-quinazolin-2-one]
